Several values for one entry are separate records, joined by “and”; a condition that tells them apart may be missing. Equal values may be shown once. Entries after “also recorded” stand apart in the source; their conditions may differ. Read-outs that look alike come from different tables or passages of the source.
Tests used:
[1] = Phase Ib twice-daily dose study of DGJ in healthy volunteers, plasma and urine pharmacokinetics; format: in vivo, human
Procedure: Subjects were housed in the treatment facility from 14 hours prior to dosing until 24 hours after dosing. Meals were controlled by schedule and subjects remained abulatory for 4 hours post drug administration
Blood samples (10 mL each) were collected in blood collection tubes containing EDTA before dosing and at the following times thereafter: 0.25, 0.5, 0.75, 1, 1.5, 2, 3, 4, 5, 6, 7, 8, 9, 10, 11 and 12 hours. Blood samples were cooled in an ice bath and centrifuged under refrigeration as soon as possible. Plasma samples were divided into two aliquots and stored at […]. pending assay. At the end of the study, all samples were transferred to MDS Pharma Services Analytical Laboratories (Lincoln) for analysis.

[2] = test system: GL-3; test: Example 5, skin GL-3 levels by light and electron microscopy; format: in vivo, human; conditions: 10 patients, baseline and after treatment
Procedure: Eight patients in the study received an ascending dose of 25, 100, and then 250 mg b.i.d. over 6 weeks, followed by 50 mg/day for the remainder of the study.
Skin GL-3 levels at baseline and after treatment as assessed by light and electron microscopy are available for 10 patients.

[3] = test system: GL-3; test: Example 6, urinalysis of GL-3; format: in vivo, human
Procedure: Four male patients received a single 150 mg Q.O.D for 12 weeks (Group B); while five male patients received 150 mg Q.O.D. for 24 weeks (Group C). Finally nine female patients were randomized to receive one of three dosages: 50, 150 or 250 mg Q.O.D for 12 weeks (Group D) (FIG. 8).
Urine was analysed at baseline and periodically every 2-6 weeks for GL-3.

[4] = test system: Fabry patients; test: Example 6, self-reported Fabry symptoms; format: in vivo, human
Text: Patients self-reported changes in symptoms at the end of 12 or 24 week treatment period to evaluate, inter alia, reduction in acroparaesthesia. This may be evidence of clearance of GL-3 in the microvasculature of peripheral nerve cells.

[5] = target: T1, α-GAL (Homo sapiens, UniProt P06280, R301Q); test: Example 8, α-GAL expression in tissues of transgenic mice expressing R301Q; format: in vivo; conditions: 100 mg/kg ad libitum, four weeks
T1 construct: from tissue; host or cells: skin, heart, kidney of transgenic mice
T1 sequence (P06280 32-429 R301Q): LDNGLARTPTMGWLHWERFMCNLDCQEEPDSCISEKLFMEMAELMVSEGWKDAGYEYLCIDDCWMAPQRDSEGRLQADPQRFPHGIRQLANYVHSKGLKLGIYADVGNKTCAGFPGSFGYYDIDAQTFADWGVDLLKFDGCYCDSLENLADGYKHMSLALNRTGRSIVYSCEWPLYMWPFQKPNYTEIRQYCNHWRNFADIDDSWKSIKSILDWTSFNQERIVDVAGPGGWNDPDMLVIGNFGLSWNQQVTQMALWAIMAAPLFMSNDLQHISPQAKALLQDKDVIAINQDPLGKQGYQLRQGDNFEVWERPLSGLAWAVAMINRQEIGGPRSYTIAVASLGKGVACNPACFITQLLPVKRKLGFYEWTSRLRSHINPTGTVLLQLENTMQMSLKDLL

[6] = test system: patients with Fabry disease; test: Example 15, renal function assessment; format: in vivo, human
Procedure: Annualized rates of change (mL/min/1.73 m^2/year) were calculated using Chronic Kidney Disease Epidemiology Collaboration-eGFRCKD-EPI) and measured iohexol clearance-mGFRiohexol).

[7] = human, plasma, oral, 50 mg, 50 mg bid, Day 1
[8] = human, plasma, oral, 50 mg, 50 mg bid, Day 7
[9] = human, plasma, oral, 150 mg, 150 mg bid, Day 1
[10] = human, plasma, po, 150 mg, oral 150 mg DGJ hydrochloride
[11] = up to 24 months of DGJ, mITT-suitable

OC[C@H]1NC[C@H](O)[C@@H](O)[C@H]1O [DGJ, (2R,3S,4R,5S)-2-(hydroxymethyl) piperdine-3,4,5-triol]
12 h cumulative renal excretion ([1]; 50 mg bid, Day 1): 16% and 16 ± 6% | 12 h cumulative renal excretion ([1]; 50 mg bid, Day 7): 48% and 48 ± 7% | Cmin ([1]; 50 mg bid, Day 7): 0.4 ± 0.03 µM | dose dependence of Cmax ([1]; 50 mg to 150 mg): increased in a dose-proportional manner | 12 h cumulative renal excretion ([1]; 150 mg bid, Day 1): 42% and 42 ± 7% | 12 h cumulative renal excretion ([1]; 150 mg bid, Day 7): 60% and 60 ± 5% | Cmax ([1]; 150 mg bid, Day 7): 10.8 ± 1.4 µM | Cmin ([1]; 150 mg bid, Day 7): 1.2 ± 0.1 µM | time of peak concentrations, on average ([1]; all dose levels): approximately 3 hours | oral availability ([1]; healthy male volunteers): orally available | Cmax [1, 7]: 2.3 ± 0.3 µM | Tmax [1, 7]: 2.9 ± 0.4 h | Cmax [1, 8]: 3.9 ± 0.5 µM | Tmax [1, 8]: 2.5 ± 0.4 h | Cmax [1, 9]: 11.3 ± 1.5 µM | Tmax [1, 9]: 3.1 ± 0.4 h | Tmax ([1]; human, plasma, oral, 150 mg, 150 mg bid, Day 7): 2.9 ± 0.4 h | half-life ([1]; human, plasma, oral, 50 mg bid, Day 1, read-out: t½ (converted)): 2.5 h | half-life ([1]; human, plasma, oral, 150 mg bid, Day 1, read-out: t½ (converted)): 2.4 h | Cmax [1, 10]: 9 µM | Tmax [1, 10]: 3 h | half-life ([1]; human, plasma, po, 150 mg, read-out: Half-life (exponential decay) (converted)): 3 h | skin GL-3 levels [2]: Seven patients had skin GL-3 levels that were normal or near normal both before and after treatment; also recorded: Results for the three other patients were difficult to interpret | expected good responders with urine GL-3 decrease greater than 10% ([3]; female): 3 of the 5 | mean decrease in urine GL-3 levels ([3]; female expected good responders): 20% | good responders with urine GL-3 decrease greater than 10% ([3]; male good responders): eight of the eleven | mean decrease in urine GL-3 levels ([3]; male good responders): 38% | urine GL-3 following treatment ([3]; male moderate and non responders): overall increases in urine GL-3 | self-reported symptoms ([4]; four female expected good responders): decreases in pain | self-reported symptoms ([4]; seven male good responders): improved gastrointestinal function and a decrease in pain | α-GAL expression in the skin, heart and kidney [5]: increased | eGFRCKD-EPI or mGFRIohexol changes, DGJ vs placebo ([6]; baseline to month 6, mITT-suitable): no statistically significant differences | annualized change in eGFRCKD-EPI (±SEM) [6, 11]: −0.30±6.6 mL/min/1.73 m^2 | annualized change in mGFRiohexol (±SEM) [6, 11]: −1.51±1.33 mL/min/1.73 m^2

Reference: patent US11033538B2, “Dosing regimens for the treatment of lysosomal storage diseases using pharmacological chaperones” (Amicus Therapeutics, Inc., priority 2007, dated 2021)
